# Tested on: MGC-803
# Test: Cytotoxicity against human MGC803 cells assessed as reduction in cell viability
# Type: functional, cell-based
# Settings: not given
row,Compound,IC50
1,C[C@H]1COc2c(N3CCN(C)CC3)c(F)cc3c(=O)c(-c4nnc(NC(=O)CCCCCCCC(=O)NO)s4)cn1c23,19 to 127 nM
2,C[C@H]1COc2c(N3CCN(C)CC3)c(F)cc3c(=O)c(-c4nnc(NC(=O)CCCCCCCCC(=O)Nc5ccccc5N)s4)cn1c23,46 to 203 nM
3,C[C@H]1COc2c(N3CCN(C)CC3)c(F)cc3c(=O)c(-c4nnc(NC(=O)CCCCCC(=O)O)s4)cn1c23,1100 to 14300 nM
4,C[C@H]1COc2c(N3CCN(C)CC3)c(F)cc3c(=O)c(-c4nnc(NC(=O)CCCC(=O)Nc5ccccc5N)s4)cn1c23,46 to 203 nM

# Tested on: HL-60
# Test: Antiproliferative activity against human HL60 cells after 72 hrs by MTT assay
# Type: functional, cell-based
# Settings: HL-60, 72 h
row,Compound,IC50
1,N=C(NS(=O)(=O)c1cccc(Cl)c1)N1CCN(c2cc3c(cc2F)c(=O)c(C(=O)O)cn3C2CC2)CC1,32 to 161 nM
2,CCc1c2c(nc3ccc(OC(=O)N4CCC(N5CCCCC5)CC4)cc13)-c1cc3c(c(=O)n1C2)COC(=O)[C@]3(O)CC [IRINOTECAN],32 to 44 nM

# Tested on: MCF7
# Test: Cytotoxicity against human MCF7 cells assessed as reduction in cell viability
# Type: functional, cell-based
# Settings: not given
row,Compound,IC50
1,C[C@H]1COc2c(N3CCN(C)CC3)c(F)cc3c(=O)c(-c4nnc(NC(=O)CCCCCCCC(=O)NO)s4)cn1c23,19 to 127 nM
2,C[C@H]1COc2c(N3CCN(C)CC3)c(F)cc3c(=O)c(-c4nnc(NC(=O)CCCCCCCCC(=O)Nc5ccccc5N)s4)cn1c23,46 to 203 nM
3,C[C@H]1COc2c(N3CCN(C)CC3)c(F)cc3c(=O)c(-c4nnc(NC(=O)CCCCCC(=O)O)s4)cn1c23,1100 to 14300 nM
4,C[C@H]1COc2c(N3CCN(C)CC3)c(F)cc3c(=O)c(-c4nnc(NC(=O)CCCC(=O)Nc5ccccc5N)s4)cn1c23,46 to 203 nM

# Tested on: GES1
# Test: Cytotoxicity against human GES-1 cells assessed as reduction in cell viability
# Type: cell-based
# Settings: not given
row,Compound,IC50
1,C[C@H]1COc2c(N3CCN(C)CC3)c(F)cc3c(=O)c(-c4nnc(NC(=O)CCCCCCCC(=O)NO)s4)cn1c23,> 81500 nM
2,C[C@H]1COc2c(N3CCN(C)CC3)c(F)cc3c(=O)c(-c4nnc(NC(=O)CCCCCCCCC(=O)Nc5ccccc5N)s4)cn1c23,> 81500 nM
3,C[C@H]1COc2c(N3CCN(C)CC3)c(F)cc3c(=O)c(-c4nnc(NC(=O)CCCCCC(=O)O)s4)cn1c23,> 81500 nM
4,C[C@H]1COc2c(N3CCN(C)CC3)c(F)cc3c(=O)c(-c4nnc(NC(=O)CCCC(=O)Nc5ccccc5N)s4)cn1c23,> 81500 nM

# Tested on: A549
# Test: Antiproliferative activity against human A549 cells after 72 hrs by MTT assay
# Type: functional, cell-based
# Settings: A549, 72 h
row,Compound,IC50
1,N=C(NS(=O)(=O)c1cccc(Cl)c1)N1CCN(c2cc3c(cc2F)c(=O)c(C(=O)O)cn3C2CC2)CC1,32 to 161 nM

# Tested on: NCI-H460
# Test: Cytotoxicity against human NCI-H460 cells assessed as reduction in cell viability
# Type: functional, cell-based
# Settings: not given
row,Compound,IC50
1,C[C@H]1COc2c(N3CCN(C)CC3)c(F)cc3c(=O)c(-c4nnc(NC(=O)CCCCCCCC(=O)NO)s4)cn1c23,19 to 127 nM
2,C[C@H]1COc2c(N3CCN(C)CC3)c(F)cc3c(=O)c(-c4nnc(NC(=O)CCCCCCCCC(=O)Nc5ccccc5N)s4)cn1c23,46 to 203 nM
3,C[C@H]1COc2c(N3CCN(C)CC3)c(F)cc3c(=O)c(-c4nnc(NC(=O)CCCCCC(=O)O)s4)cn1c23,1100 to 14300 nM
4,C[C@H]1COc2c(N3CCN(C)CC3)c(F)cc3c(=O)c(-c4nnc(NC(=O)CCCC(=O)Nc5ccccc5N)s4)cn1c23,46 to 203 nM

# Tested on: SK-MEL3
# Test: Cytotoxicity against human SK-MEL-3 cells assessed as reduction in cell viability by MTT assay
# Type: functional, cell-based
# Settings: not given
row,Compound,IC50
1,CCn1cc(C(=O)O)c(=O)c2cc(F)c(N3CCN(C/C(=N/OCc4ccccc4)c4ccc(Cl)s4)CC3)nc21,≤ 20000 nM
2,CCn1cc(C(=O)O)c(=O)c2cc(F)c(N3CCN(C/C(=N/OCc4ccccc4)c4ccc(Cl)s4)CC3)cc21,≤ 20000 nM
3,CO/N=C(/CN1CCN(c2cc3c(cc2F)c(=O)c(C(=O)O)cn3C2CC2)CC1)c1ccc(Cl)s1,≤ 20000 nM
4,O=C(CN1CCN(c2cc3c(cc2F)c(=O)c(C(=O)O)cn3C2CC2)CC1)c1ccc(Cl)s1,≥ 100000 nM
5,O=C(O)c1cn(C2CC2)c2cc(N3CCN(C/C(=N/O)c4ccc(Cl)s4)CC3)c(F)cc2c1=O,≤ 20000 nM
6,CCn1cc(C(=O)O)c(=O)c2cc(F)c(N3CCNCC3)nc21 [ENOXACIN],137000 to 238000 nM
7,O=C(O)c1cn(C2CC2)c2cc(N3CCN(C/C(=N/OCc4ccccc4)c4cccs4)CC3)c(F)cc2c1=O,2000 to 131000 nM
8,CCn1cc(C(=O)O)c(=O)c2cc(F)c(N3CCN(CC(=O)c4cccs4)CC3)cc21,2000 to 131000 nM

# Tested on: EJ
# Test: Cytotoxicity against human EJ cells assessed as reduction in cell viability by MTT assay
# Type: functional, cell-based
# Settings: not given
row,Compound,IC50
1,CCn1cc(C(=O)O)c(=O)c2cc(F)c(N3CCN(C/C(=N/OCc4ccccc4)c4ccc(Cl)s4)CC3)nc21,≤ 20000 nM
2,CCn1cc(C(=O)O)c(=O)c2cc(F)c(N3CCN(C/C(=N/OCc4ccccc4)c4ccc(Cl)s4)CC3)cc21,≤ 20000 nM
3,CO/N=C(/CN1CCN(c2cc3c(cc2F)c(=O)c(C(=O)O)cn3C2CC2)CC1)c1ccc(Cl)s1,≤ 20000 nM
4,O=C(CN1CCN(c2cc3c(cc2F)c(=O)c(C(=O)O)cn3C2CC2)CC1)c1ccc(Cl)s1,≥ 100000 nM
5,O=C(O)c1cn(C2CC2)c2cc(N3CCN(C/C(=N/O)c4ccc(Cl)s4)CC3)c(F)cc2c1=O,≤ 20000 nM
6,CCn1cc(C(=O)O)c(=O)c2cc(F)c(N3CCNCC3)nc21 [ENOXACIN],137000 to 238000 nM
7,O=C(O)c1cn(C2CC2)c2cc(N3CCN(C/C(=N/OCc4ccccc4)c4cccs4)CC3)c(F)cc2c1=O,2000 to 131000 nM
8,CCn1cc(C(=O)O)c(=O)c2cc(F)c(N3CCN(CC(=O)c4cccs4)CC3)cc21,2000 to 131000 nM

# Tested on: A-431
# Test: Cytotoxicity against human A431 cells assessed as reduction in cell viability by MTT assay
# Type: functional, cell-based
# Settings: not given
row,Compound,IC50
1,CCn1cc(C(=O)O)c(=O)c2cc(F)c(N3CCN(C/C(=N/OCc4ccccc4)c4ccc(Cl)s4)CC3)nc21,≤ 20000 nM
2,CCn1cc(C(=O)O)c(=O)c2cc(F)c(N3CCN(C/C(=N/OCc4ccccc4)c4ccc(Cl)s4)CC3)cc21,≤ 20000 nM
3,CO/N=C(/CN1CCN(c2cc3c(cc2F)c(=O)c(C(=O)O)cn3C2CC2)CC1)c1ccc(Cl)s1,≤ 20000 nM
4,O=C(CN1CCN(c2cc3c(cc2F)c(=O)c(C(=O)O)cn3C2CC2)CC1)c1ccc(Cl)s1,≥ 100000 nM
5,O=C(O)c1cn(C2CC2)c2cc(N3CCN(C/C(=N/O)c4ccc(Cl)s4)CC3)c(F)cc2c1=O,≤ 20000 nM
6,CCn1cc(C(=O)O)c(=O)c2cc(F)c(N3CCNCC3)nc21 [ENOXACIN],137000 to 238000 nM
7,O=C(O)c1cn(C2CC2)c2cc(N3CCN(C/C(=N/OCc4ccccc4)c4cccs4)CC3)c(F)cc2c1=O,2000 to 131000 nM
8,CCn1cc(C(=O)O)c(=O)c2cc(F)c(N3CCN(CC(=O)c4cccs4)CC3)cc21,2000 to 131000 nM

# Tested on: PC-3
# Test: Cytotoxicity against human PC3 cells assessed as reduction in cell viability
# Type: functional, cell-based
# Settings: not given
row,Compound,IC50
1,C[C@H]1COc2c(N3CCN(C)CC3)c(F)cc3c(=O)c(-c4nnc(NC(=O)CCCCCCCC(=O)NO)s4)cn1c23,19 to 127 nM
2,C[C@H]1COc2c(N3CCN(C)CC3)c(F)cc3c(=O)c(-c4nnc(NC(=O)CCCCCCCCC(=O)Nc5ccccc5N)s4)cn1c23,46 to 203 nM
3,C[C@H]1COc2c(N3CCN(C)CC3)c(F)cc3c(=O)c(-c4nnc(NC(=O)CCCCCC(=O)O)s4)cn1c23,1100 to 14300 nM
4,C[C@H]1COc2c(N3CCN(C)CC3)c(F)cc3c(=O)c(-c4nnc(NC(=O)CCCC(=O)Nc5ccccc5N)s4)cn1c23,46 to 203 nM

# Tested on: HepG2
# Test: Cytotoxicity against human HepG2 cells assessed as reduction in cell viability
# Type: functional, cell-based
# Settings: not given
row,Compound,IC50
1,C[C@H]1COc2c(N3CCN(C)CC3)c(F)cc3c(=O)c(-c4nnc(NC(=O)CCCCCCCC(=O)NO)s4)cn1c23,19 to 127 nM
2,C[C@H]1COc2c(N3CCN(C)CC3)c(F)cc3c(=O)c(-c4nnc(NC(=O)CCCCCCCCC(=O)Nc5ccccc5N)s4)cn1c23,46 to 203 nM
3,C[C@H]1COc2c(N3CCN(C)CC3)c(F)cc3c(=O)c(-c4nnc(NC(=O)CCCCCC(=O)O)s4)cn1c23,1100 to 14300 nM
4,C[C@H]1COc2c(N3CCN(C)CC3)c(F)cc3c(=O)c(-c4nnc(NC(=O)CCCC(=O)Nc5ccccc5N)s4)cn1c23,46 to 203 nM

# Tested on: MCF7
# Test: Cytotoxicity against human MCF7 cells assessed as reduction in cell viability by MTT assay
# Type: functional, cell-based
# Settings: not given
row,Compound,IC50
1,CCn1cc(C(=O)O)c(=O)c2cc(F)c(N3CCN(C/C(=N/OCc4ccccc4)c4ccc(Cl)s4)CC3)nc21,≤ 20000 nM
2,CCn1cc(C(=O)O)c(=O)c2cc(F)c(N3CCN(C/C(=N/OCc4ccccc4)c4ccc(Cl)s4)CC3)cc21,≤ 20000 nM
3,CO/N=C(/CN1CCN(c2cc3c(cc2F)c(=O)c(C(=O)O)cn3C2CC2)CC1)c1ccc(Cl)s1,≤ 20000 nM
4,O=C(CN1CCN(c2cc3c(cc2F)c(=O)c(C(=O)O)cn3C2CC2)CC1)c1ccc(Cl)s1,≥ 100000 nM
5,O=C(O)c1cn(C2CC2)c2cc(N3CCN(C/C(=N/O)c4ccc(Cl)s4)CC3)c(F)cc2c1=O,≤ 20000 nM
6,CCn1cc(C(=O)O)c(=O)c2cc(F)c(N3CCNCC3)nc21 [ENOXACIN],137000 to 238000 nM
7,O=C(O)c1cn(C2CC2)c2cc(N3CCN(C/C(=N/OCc4ccccc4)c4cccs4)CC3)c(F)cc2c1=O,2000 to 131000 nM
8,CCn1cc(C(=O)O)c(=O)c2cc(F)c(N3CCN(CC(=O)c4cccs4)CC3)cc21,2000 to 131000 nM

# Tested on: SW480
# Test: Cytotoxicity against human SW480 cells assessed as reduction in cell viability by MTT assay
# Type: functional, cell-based
# Settings: not given
row,Compound,IC50
1,CCn1cc(C(=O)O)c(=O)c2cc(F)c(N3CCN(C/C(=N/OCc4ccccc4)c4ccc(Cl)s4)CC3)nc21,≤ 20000 nM
2,CCn1cc(C(=O)O)c(=O)c2cc(F)c(N3CCN(C/C(=N/OCc4ccccc4)c4ccc(Cl)s4)CC3)cc21,≤ 20000 nM
3,CO/N=C(/CN1CCN(c2cc3c(cc2F)c(=O)c(C(=O)O)cn3C2CC2)CC1)c1ccc(Cl)s1,≤ 20000 nM
4,O=C(CN1CCN(c2cc3c(cc2F)c(=O)c(C(=O)O)cn3C2CC2)CC1)c1ccc(Cl)s1,≥ 100000 nM
5,O=C(O)c1cn(C2CC2)c2cc(N3CCN(C/C(=N/O)c4ccc(Cl)s4)CC3)c(F)cc2c1=O,≤ 20000 nM
6,CCn1cc(C(=O)O)c(=O)c2cc(F)c(N3CCNCC3)nc21 [ENOXACIN],137000 to 238000 nM
7,O=C(O)c1cn(C2CC2)c2cc(N3CCN(C/C(=N/OCc4ccccc4)c4cccs4)CC3)c(F)cc2c1=O,2000 to 131000 nM
8,CCn1cc(C(=O)O)c(=O)c2cc(F)c(N3CCN(CC(=O)c4cccs4)CC3)cc21,2000 to 131000 nM

# Tested on: SW-620
# Test: Cytotoxicity against human SW620 cells assessed as reduction in cell viability
# Type: functional, cell-based
# Settings: not given
row,Compound,IC50
1,C[C@H]1COc2c(N3CCN(C)CC3)c(F)cc3c(=O)c(-c4nnc(NC(=O)CCCCCCCC(=O)NO)s4)cn1c23,19 to 127 nM
2,C[C@H]1COc2c(N3CCN(C)CC3)c(F)cc3c(=O)c(-c4nnc(NC(=O)CCCCCCCCC(=O)Nc5ccccc5N)s4)cn1c23,46 to 203 nM
3,C[C@H]1COc2c(N3CCN(C)CC3)c(F)cc3c(=O)c(-c4nnc(NC(=O)CCCCCC(=O)O)s4)cn1c23,1100 to 14300 nM
4,C[C@H]1COc2c(N3CCN(C)CC3)c(F)cc3c(=O)c(-c4nnc(NC(=O)CCCC(=O)Nc5ccccc5N)s4)cn1c23,46 to 203 nM

# From ChEMBL document CHEMBL4613209, “Quinolone hybrids and their anti-cancer activities: An overview” (Eur J Med Chem, 2019)
